Reference: patent US20130345392A1, “EDN3-LIKE PEPTIDES AND USES THEREOF” (Pfizer Inc, priority 2011, published 2013)
Where two headings read alike, the source gives them in different places. Blank lines part the entries; values can stand above or below the molecule they belong to. Where a SMILES comes first, the peptide text is derived from it. Bridges are numbered along the chain shown (N, C = ends). Where no end group is shown, it is not given here.

What was measured:
GLUTag cells = settings: for GLP-1 secretion from GLUTag cells, result in words: endothelin-3 at highest concentration 10 μM
rat perfused colon = assay: GLP-1 secretion from rat perfused colon ex vivo; settings: forskolin (1 μM), rat perfused colon, vs baseline, p=0.0398
Procedure: Ex vivo rat colon vascular perfusion experiments were performed as previously described (Plaisancié, 1995). Male Sprague-Dawley rats (300 g) were purchased from Charles River and fed ad libitum with Purina Lab Chow #5001 (WF Fisher and Son Inc Sommerville, N.J.). Rats were decapitated and the abdomen was opened with a midline incision. […] The arterial vascular perfusion started immediately with an oxygenated Krebs-Henseleit buffer containing-solution at a rate of 2 mL/minute [solution: Krebs-Henseleit buffer (25.0 mM NaHCO3; 118 mM NaCl; 4.7 mM KCl; 1.2 mM MgSO4; 1.2 mM KH2PO4; 2.5 mM CaCl2) with 3% BSA, 5 mM glucose, MEM essential and nonessential amino acids (pH 7.4)]. The colonal lumen was perfused at the rate of 0.5 mL/minute. The remaining colon and small intestine were removed after the ligation of their respective supplying vessels. After the colon preparation was transferred to a 37° C. tissue bath, the portal effluent was collected as 5 minute fractions. The fraction aliquots were frozen at −20° C. for subsequent determinations of GLP-1. EDN3 97-140 was dissolved at 200 nM in vascular perfusion solution and perfused into the artery after a 30 minute baseline collection. […] The GLP-1 detection assay was carried out by using a commercial kit for active GLP-1 (7-36) amide according to the manufacturer's instructions (Millipore). GLP-1 release data was normalized to % baseline using the average of fractions collected prior to treatment as the baseline value and the peak data following each treatment. The average data across 3 independent experiments was reported comparing EDN3 97-140 versus control (baseline) and forskolin versus control (baseline). Statistical analysis was performed by one sided Satterwaite's test due to unequal variance and the Holm test was applied to account for multiple comparisons.

[1] = tested on: isolated rat aortic rings; settings: read-out: EC50, concentration-dependent contractions, n=4-6
Procedure: The thoracic aorta with endothelium intact was isolated from male Wistar rats (300-500 g), cut into 3 mm rings, and placed in tissue baths with oxygenated Krebs-Henseleit buffer containing (in mM): KCl (4.7), CaCl2-2H2O (2.5), MgSO4-7H2O (1.2), KH2PO4 (1.2), D-glucose (10), NaHCO3 (25), NaCl (118). Tissues were placed under a 3 g basal tension and allowed to equilibrate for 1 hour at 37° C.

[2] = target: T1, human endothelin ETB receptor (human, UniProt P24530 27-442); assay: radioligand competition ([125I]endothelin-1) on membranes of CHO cells transfected with human ETB
T1 construct: whole, on cells; Assayed as membrane homogenates (2.4 ug protein) of transfected CHO cells; also called endothelin receptor B
T1 sequence (looked up): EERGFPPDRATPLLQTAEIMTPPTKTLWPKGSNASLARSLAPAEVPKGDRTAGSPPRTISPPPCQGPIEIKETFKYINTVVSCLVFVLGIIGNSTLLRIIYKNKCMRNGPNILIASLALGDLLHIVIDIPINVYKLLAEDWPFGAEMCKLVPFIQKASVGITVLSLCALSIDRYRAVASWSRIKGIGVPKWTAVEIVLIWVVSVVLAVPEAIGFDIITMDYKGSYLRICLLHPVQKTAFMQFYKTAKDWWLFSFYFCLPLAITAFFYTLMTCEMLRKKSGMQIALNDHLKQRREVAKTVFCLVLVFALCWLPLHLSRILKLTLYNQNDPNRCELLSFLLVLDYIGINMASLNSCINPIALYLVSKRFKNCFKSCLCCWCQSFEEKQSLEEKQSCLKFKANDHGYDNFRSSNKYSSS
Procedure: (§1) To evaluate the affinity of EDN3 97-140 for the agonist site of the human endothelin ETB receptor in transfected CHO cells, radioligand binding was used. […] Following incubation, the samples were filtered rapidly under vacuum through glass fiber filters (GF/B, Packard) presoaked with 0.1% BSA and rinsed several times with an ice-cold buffer containing 50 mM Tris-HCl and 150 mM NaCl using a 96-sample cell harvester (Unifilter, Packard). The filters were dried then counted for radioactivity in a scintillation counter (Topcount, Packard) using a scintillation cocktail (Microscint 0, Packard).

[3] = target: T2, human endothelin ETA receptor (human, UniProt P25101 21-427); assay: radioligand competition ([125I]endothelin-1) on membranes of CHO cells transfected with human ETA
T2 construct: whole, on cells; Assayed as membrane homogenates (10 ug protein) of transfected CHO cells; also called endothelin receptor A
T2 sequence (looked up): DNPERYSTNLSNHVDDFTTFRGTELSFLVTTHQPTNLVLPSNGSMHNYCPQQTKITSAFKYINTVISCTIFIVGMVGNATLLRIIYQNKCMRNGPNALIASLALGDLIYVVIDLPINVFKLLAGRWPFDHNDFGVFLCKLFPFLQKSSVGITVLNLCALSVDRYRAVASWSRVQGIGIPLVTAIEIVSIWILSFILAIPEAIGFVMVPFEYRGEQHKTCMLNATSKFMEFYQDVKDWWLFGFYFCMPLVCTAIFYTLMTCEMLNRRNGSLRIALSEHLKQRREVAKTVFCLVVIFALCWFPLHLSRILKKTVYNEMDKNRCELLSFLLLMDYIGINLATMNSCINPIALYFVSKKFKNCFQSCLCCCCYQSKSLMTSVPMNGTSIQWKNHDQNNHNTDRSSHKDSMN
Procedure: as §1, with “endothelin ETA receptor,” for “endothelin ETB receptor in transfected CHO cells,”, “binding with CHO cells transfected with the ETA receptor” for “binding”, “samples are” for “samples were”, “Packard). Filters” for “Packard). The filters”, “dried and” for “dried”

Molecule: CC[C@H](C)[C@H](NC(=O)[C@H](Cc1c[nH]c2ccccc12)NC(=O)[C@@H](NC(=O)[C@@H](NC(=O)[C@H](CC(=O)O)NC(=O)[C@H](CC(C)C)NC(=O)[C@H](Cc1c[nH]cn1)NC(=O)[C@H](CS)NC(=O)[C@H](Cc1ccc(O)cc1)NC(=O)[C@H](Cc1ccc(O)cc1)NC(=O)[C@@H](NC(=O)[C@H](CS)NC(=O)[C@H](CCC(=O)O)NC(=O)[C@H](CCCCN)NC(=O)[C@H](CC(=O)O)NC(=O)[C@H](CCCCN)NC(=O)[C@@H](N)Cc1ccc(O)cc1)C(C)C)[C@@H](C)CC)[C@@H](C)CC)C(=O)N[C@@H](CC(N)=O)C(=O)N[C@H](C(=O)N1CCC[C@H]1C(=O)N[C@@H](CCC(=O)O)C(=O)N[C@@H](CCC(N)=O)C(N)=O)[C@@H](C)O [EDN3 102-123] (H-YKDKECVYYCHLDIIWINTPEQ-NH2; N-terminus assumed)
EC50 (GLUTag cells): > 10000 nM

Molecule: C=C[C@@]1(C)CC(=O)[C@]2(O)[C@@]3(C)[C@@H](O)CCC(C)(C)[C@@H]3[C@H](O)[C@H](OC(C)=O)[C@@]2(C)O1 [forskolin, reference compound]
stimulation of GLP-1 release, positive control (rat perfused colon): 1717±350%

Molecule: ATCFTYKDKECVYYAHLDIIWINTPEQTVPYGLSNYRESLRGKR-NH2 (disulfide 3-11) [EDN3 97-140 C97A, C111A]
EC50 (GLUTag cells): 2700 nM

Molecule: CTAFTYKDKEAVYYCHLDIIWINTPEQTVPYGLSNYRESLRGKR-NH2 (disulfide 1-15) [EDN3 97-140 C99A, C107A]
EC50 (GLUTag cells): 1600 nM

Molecule: CTCFTYKDKECVYYCHLDIIFINTPEQTVPYGLSNYRESLRGKR-NH2 (disulfide 1-15, 3-11 (inferred)) [EDN3 97-140 W117F]
EC50 (GLUTag cells): 731 nM
GLP-1 secretion from GLUTag cells, result in words (GLUTag cells): does not cause a loss of GLP-1 secretagogue function

Molecule: FTYKDKECVYYCHLDIIWINTPEQTVPYGLSNYRESLRGKR-NH2 (cysteines drawn unpaired) [EDN3 100-140]
EC50 (GLUTag cells): > 10000 nM
GLP-1 secretion from GLUTag cells, result in words (GLUTag cells): do not measurably stimulate GLP-1 secretion

Molecule: TCFTYKDKECVYYCHLDIIWINTPEQTVPYGLSNYRESLRGKR-NH2 (cysteines drawn unpaired) [EDN3 98-140]
EC50 (GLUTag cells): > 10000 nM
GLP-1 secretion from GLUTag cells, result in words (GLUTag cells): do not measurably stimulate GLP-1 secretion

Molecule: YYAHLDIIAINTPEQTVPYGLSNYRESLRGKR-NH2 [EDN3 109-140 C111A W117A]
EC50 (GLUTag cells): > 10000 nM

Molecule: YYSHLDIIWINTPEQTVPYGLSNYRESLRGKR-NH2 [EDN3 109-140 C111S]
EC50 (GLUTag cells): > 10000 nM

Molecule: endothelin-1 [reference compound]
EC50 [1]: 2.7 ± 1 nM

B1: EDN3 97-140 (peptide)
peptide: CTCFTYKDKECVYYCHLDIIWINTPEQTVPYGLSNYRESLRGKR-NH2
modifications: not fully specified; cysteine pairing not given here
notes: also called long endothelin-3; 44 amino acid, C-terminally amidated endothelin-like peptide
binding result [2]: no binding (tested: up to 3 µM)
binding result [3]: no binding (tested: up to 3 µM)

Second part, led by results:

EC50 (GLUTag cells): > 10000 nM
Molecule: CC[C@H](C)[C@H](NC(=O)[C@H](CC(=O)O)NC(=O)[C@H](CC(C)C)NC(=O)[C@H](Cc1c[nH]cn1)NC(=O)[C@@H]1CSSC[C@H](N)C(=O)N[C@@H]([C@@H](C)O)C(=O)N[C@H]2CSSC[C@H](NC(=O)[C@H](CCC(=O)O)NC(=O)[C@H](CCCCN)NC(=O)[C@H](CC(=O)O)NC(=O)[C@H](CCCCN)NC(=O)[C@H](Cc3ccc(O)cc3)NC(=O)[C@H]([C@@H](C)O)NC(=O)[C@H](Cc3ccccc3)NC2=O)C(=O)N[C@@H](C(C)C)C(=O)N[C@@H](Cc2ccc(O)cc2)C(=O)N[C@@H](Cc2ccc(O)cc2)C(=O)N1)C(=O)N[C@H](C(=O)N[C@@H](Cc1c[nH]c2ccccc12)C(=O)O)[C@@H](C)CC [endothelin-3, reference compound]
GLP-1 secretion from GLUTag cells, result in words (GLUTag cells): no effect
GLP-1 secretion from GLUTag cells, result in words (GLUTag cells; listed as Endothelin-3 (EDN3 97-117)): not sufficient to elicit a GLP-1 release

EC50 (GLUTag cells): > 1000 nM
Molecule: CTCFTYKDKECVYYCHLDIIHINTPEQTVPYGLSNYRESLRGKR-NH2 (disulfide 1-15, 3-11 (inferred)) [EDN3 97-140 W117H]

EC50 (GLUTag cells): 1720 nM
Molecule: CTCFTYKDKECVYYCHLDIIWINTPEQTVPYGLSNYRESLR-NH2 (disulfide 1-15, 3-11 (inferred)) [EDN3 97-137]
GLP-1 secretion from GLUTag cells, result in words (GLUTag cells): partial loss of activity

EC50 (GLUTag cells): 2000 nM
Molecule: CTCFTYKDKECVYYCHLDIIWINTPEQTVPYGLSNYRESLRGKR-OH (disulfide 1-15, 3-11 (inferred)) [EDN3 97-140 free acid]

EC50 (GLUTag cells): > 10000 nM
Molecule: FTYKDKESVYY-NH2 [EDN3 100-110]

EC50 (GLUTag cells): > 10000 nM
Molecule: INTPEQTVPYGLSNYRESLRGKR-NH2 [EDN3 118-140]

EC50 (GLUTag cells): > 10000 nM
Molecule: STSFTYKDKESVYYSHLDIIWINTPEQTVPYGLSNYRESLRGKR-NH2 [EDN3 97-140 C->S mutant]
